Experiments:
Nilaparvata lugens [1] = test: Insecticidal activity against Nilaparvata lugens (brown planthopper) assessed as mortality at 200 ppm after 2 days by foliar spraying method; type: functional; conditions: 48 h
[2] = Drug degradation in sorensen buffer assessed as hydrolysis at 3 x 10^-5 M at pH 7.4 after 24 hr; type: physicochemical; conditions: read-out: Drug degradation
Nephotettix cincticeps [3] = test: Insecticidal activity against drug-susceptible Nephotettix cincticeps Ageo (green rice leafhopper) assessed as mortality […] after 2 days by foliar spraying method; type: functional; conditions: 48 h
Plutella xylostella = test: Insecticidal activity against Plutella xylostella (diamondback moth) assessed as mortality at 200 ppm after 2 days by foliar spraying method; type: functional; conditions: 48 h
Nephotettix cincticeps [4] = test: Insecticidal activity against Nephotettix cincticeps Izumi (green rice leafhopper) assessed as mortality at 200 ppm after 2 days by foliar spraying method; type: functional; conditions: 48 h
Culex pipiens = test: Insecticidal activity against Culex pipiens assessed as mortality at 200 ppm after 2 days by immersion method; type: functional; conditions: 48 h
Nephotettix cincticeps [5] = test: Insecticidal activity against drug-resistant Nephotettix cincticeps Izumi (green rice leafhopper) assessed as mortality […] after 2 days by foliar spraying method; type: functional; conditions: 48 h
Tetranychus urticae = test: Acaricidal activity against Tetranychus urticae (two-spotted spider mite) assessed as mortality at 200 ppm after 2 days by leaf dipping method; type: functional; conditions: foliar, 48 h
[6] = Lipophilicity, log K of the compound; type: physicochemical; conditions: octanol/water
Acetylcholinesterase [7] = biological target: T1, Acetylcholinesterase (Bos taurus, UniProt P23795); test: Inhibition of Bos taurus (bovine) erythrocytes acetylcholinesterase; conditions: read-out: I50
T1 sequence (P23795 whole entry): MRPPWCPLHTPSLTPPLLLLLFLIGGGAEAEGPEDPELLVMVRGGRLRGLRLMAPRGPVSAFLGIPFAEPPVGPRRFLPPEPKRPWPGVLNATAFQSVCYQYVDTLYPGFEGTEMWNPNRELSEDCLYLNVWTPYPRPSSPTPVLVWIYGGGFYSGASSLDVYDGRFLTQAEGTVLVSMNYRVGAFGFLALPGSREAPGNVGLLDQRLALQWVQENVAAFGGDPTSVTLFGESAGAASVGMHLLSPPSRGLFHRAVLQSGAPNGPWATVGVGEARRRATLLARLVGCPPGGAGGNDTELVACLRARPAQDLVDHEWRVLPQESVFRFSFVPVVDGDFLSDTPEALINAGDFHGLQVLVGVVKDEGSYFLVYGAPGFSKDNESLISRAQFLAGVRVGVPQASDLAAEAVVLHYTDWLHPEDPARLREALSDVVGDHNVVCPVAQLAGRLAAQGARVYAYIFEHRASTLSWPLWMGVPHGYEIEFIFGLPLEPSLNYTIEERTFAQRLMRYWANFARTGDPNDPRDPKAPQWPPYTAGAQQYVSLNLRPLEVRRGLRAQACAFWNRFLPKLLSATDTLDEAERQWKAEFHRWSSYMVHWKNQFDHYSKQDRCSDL

[8] = biological target: Ace-orthologous acetylcholinesterase (Nephotettix cincticeps, UniProt Q9NJH6); test: Inhibition of drug-susceptible Nephotettix cincticeps Ageo (green rice leafhopper) acetylcholinesterase; conditions: read-out: I50
Nephotettix cincticeps [9] = test: Insecticidal activity against drug-susceptible Nephotettix cincticeps Ageo (green rice leafhopper) assessed as mortality after 2 days by foliar spraying method; type: functional; conditions: 48 h
Musca domestica = test: Insecticidal activity against Musca domestica (house fly) NAIDM; type: functional
Acetylcholinesterase [10] = biological target: Acetylcholinesterase (Musca domestica, UniProt Q7YWJ9); test: Inhibition of Musca domestica (house fly) NAIDM head acetylcholinesterase; conditions: read-out: I50
Nephotettix cincticeps [11] = test: Insecticidal activity against Nephotettix cincticeps Izumi (green rice leafhopper) assessed as mortality at 200 ppm after 6 days by foliar spraying method; type: functional; conditions: 144 h
Nilaparvata lugens [12] = test: Insecticidal activity against Nilaparvata lugens (brown planthopper) assessed as mortality at 200 ppm after 6 days by foliar spraying method; type: functional; conditions: 144 h

Chain of Acetylcholinesterase (Musca domestica, UniProt Q7YWJ9) (Q7YWJ9 whole entry): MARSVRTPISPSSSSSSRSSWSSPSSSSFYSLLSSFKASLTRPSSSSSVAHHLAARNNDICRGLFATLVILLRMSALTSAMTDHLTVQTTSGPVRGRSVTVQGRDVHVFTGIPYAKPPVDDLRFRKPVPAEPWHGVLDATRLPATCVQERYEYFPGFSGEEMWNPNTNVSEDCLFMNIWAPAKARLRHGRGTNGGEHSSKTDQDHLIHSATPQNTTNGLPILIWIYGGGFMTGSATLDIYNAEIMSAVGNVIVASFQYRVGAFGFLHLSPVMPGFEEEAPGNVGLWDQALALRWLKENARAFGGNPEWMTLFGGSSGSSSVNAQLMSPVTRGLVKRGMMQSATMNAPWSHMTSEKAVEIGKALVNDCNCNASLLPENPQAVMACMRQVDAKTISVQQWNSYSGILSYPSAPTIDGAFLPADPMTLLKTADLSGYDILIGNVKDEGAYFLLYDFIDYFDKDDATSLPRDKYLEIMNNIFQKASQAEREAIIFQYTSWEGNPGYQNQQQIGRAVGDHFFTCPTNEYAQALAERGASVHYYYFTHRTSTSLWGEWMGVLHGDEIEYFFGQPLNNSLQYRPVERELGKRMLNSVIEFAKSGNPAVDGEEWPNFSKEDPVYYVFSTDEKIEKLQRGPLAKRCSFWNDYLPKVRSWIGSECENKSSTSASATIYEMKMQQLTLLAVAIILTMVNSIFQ
Chain of Ace-orthologous acetylcholinesterase (Q9NJH6 whole entry): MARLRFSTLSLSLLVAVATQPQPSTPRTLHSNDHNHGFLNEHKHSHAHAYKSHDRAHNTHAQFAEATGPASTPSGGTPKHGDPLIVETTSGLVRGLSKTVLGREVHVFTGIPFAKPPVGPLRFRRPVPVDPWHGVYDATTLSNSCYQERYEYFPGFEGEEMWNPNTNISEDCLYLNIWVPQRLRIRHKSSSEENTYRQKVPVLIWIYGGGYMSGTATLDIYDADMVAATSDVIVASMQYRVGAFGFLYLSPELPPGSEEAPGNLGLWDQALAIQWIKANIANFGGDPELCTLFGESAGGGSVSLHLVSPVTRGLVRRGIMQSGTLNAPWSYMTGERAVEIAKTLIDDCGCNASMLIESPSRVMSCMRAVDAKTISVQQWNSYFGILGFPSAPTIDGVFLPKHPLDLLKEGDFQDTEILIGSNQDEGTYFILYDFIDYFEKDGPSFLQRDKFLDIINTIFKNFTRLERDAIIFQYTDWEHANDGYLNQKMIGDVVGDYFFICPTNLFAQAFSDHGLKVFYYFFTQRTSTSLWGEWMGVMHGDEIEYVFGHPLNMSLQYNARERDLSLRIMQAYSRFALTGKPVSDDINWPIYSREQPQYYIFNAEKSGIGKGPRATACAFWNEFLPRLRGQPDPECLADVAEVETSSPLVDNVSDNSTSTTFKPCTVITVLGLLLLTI

| SMILES | mortality at 200 ppm (Nilaparvata lugens [1]) [%] | degraded at 24 h, 30 µM [2] [%] | LD50 (Nephotettix cincticeps [3]) [mg/kg] | mortality at 200 ppm (Plutella xylostella) [%] | mortality at 200 ppm (Nephotettix cincticeps [4]) [%] | mortality at 200 ppm (Culex pipiens) [%] | LD50 (Nephotettix cincticeps [5]) [mg/kg] | mortality at 200 ppm (Tetranychus urticae) [%] | log K [6] | IC50 (Acetylcholinesterase [7]) [µM] | IC50 [8] [µM] | LD50 (Nephotettix cincticeps [9]) [mg/kg] | LD50 (Musca domestica) [µg] | IC50 (Acetylcholinesterase [10]) [µM] | mortality at 200 ppm (Nephotettix cincticeps [11]) [%] | mortality at 200 ppm (Nilaparvata lugens [12]) [%] |
| --- | --- | --- | --- | --- | --- | --- | --- | --- | --- | --- | --- | --- | --- | --- | --- | --- |
| CC(C)CSc1cncc(OS(C)(=O)=O)c1 [5-(ISOBUTYLTHIO)PYRIDIN-3-YL METHANESULFONATE] | 100 | 3.8 | 1.9 | 0 | 100 | 100 | 3.7 | < 10 | 0.258 |  |  |  |  |  |  |  |
| CC(C)CSc1ccnc(OS(C)(=O)=O)c1 [4-(ISOBUTYLTHIO)PYRIDIN-2-YL METHANESULFONATE] | 100 | 4.5 | 2.3 | 0 | 100 | 100 | 2.8 | < 10 | 0.324 |  |  |  |  |  |  |  |
| CC(C)CS(=O)(=O)c1cccc(OS(C)(=O)=O)n1 |  |  |  |  |  |  |  |  |  | 0.9 | 0.0057 | 1.15 | 16 | 0.15 |  |  |
| CC(C)CSc1nc(OS(C)(=O)=O)cs1 | 100 | 9.8 | 8.2 | 0 | 100 | 100 | 11.1 | < 10 | 0.316 | 31 | 58 | 14.9 | 3.9 | 2200 |  |  |
| CC(C)CSc1cncc(OS(C)(=O)=O)n1 [6-(ISOBUTYLTHIO)PYRAZIN-2-YL METHANESULFONATE] | 100 | 36.6 | 4.6 | 0 | 50 | 100 | 40.1 | < 10 | 0.32 |  |  |  |  |  | 70 |  |
| CC(C)CS(=O)(=O)c1ccnc(OS(C)(=O)=O)c1 [4-(ISOBUTYLSULFONYL)PYRIDIN-2-YL METHANESULFONATE] |  |  |  |  |  |  |  |  |  | 0.8 | 0.026 | 0.72 | 0.33 | 1.9 |  |  |
| CC(C)CSc1cc2ccccc2c(OS(C)(=O)=O)n1 [3-(ISOBUTYLTHIO)ISOQUINOLIN-1-YL METHANESULFONATE] | 0 |  |  | 0 | 20 | 50 |  | < 10 |  |  |  |  |  |  | 80 | 10 |
| CC(C)CSc1ccc(OS(C)(=O)=O)nn1 [6-(ISOBUTYLTHIO)PYRIDAZIN-3-YL METHANESULFONATE] | 0 |  |  | 0 | 0 | 0 |  | < 10 |  |  |  |  |  |  | 0 | 0 |
| CC(C)C[S+]([O-])c1cccc(OS(C)(=O)=O)c1 (stereo unspecified) [3-(ISOBUTYLSULFINYL)PHENYL METHANESULFONATE] |  |  |  |  |  |  |  |  |  | 0.56 | 0.002 | 3.18 | 1.46 | 12 |  |  |
| CC(C)CSc1cc(OS(C)(=O)=O)ccn1 | 70 | 5.9 | 5.4 | 70 | 30 | 100 | 66.4 | < 10 | 0.379 |  |  |  |  |  | 70 | 100 |
| CC(C)CSc1nc(OS(C)(=O)=O)cc2ccccc12 | 0 |  |  | 0 | 30 | 40 |  | < 10 |  |  |  |  |  |  | 60 | 60 |
| CC(C)CSc1cccnc1OS(C)(=O)=O [3-(ISOBUTYLTHIO)PYRIDIN-2-YL METHANESULFONATE] | 50 |  |  | 0 | 40 | 30 |  | < 10 |  |  |  |  |  |  | 100 | 90 |
| CC(C)CS(=O)(=O)c1nc(OS(C)(=O)=O)cs1 |  |  |  |  |  |  |  |  |  | 1.4 | 0.0019 | 0.52 | >100 | 0.00098 |  |  |
| CNC(=O)Oc1cccc2ccccc12 [CARBARIL] |  |  |  |  |  |  |  |  |  |  | 0.029 |  |  | 0.2 |  |  |
| CC(C)CS(=O)(=O)c1cccc(OS(C)(=O)=O)c1 [3-(ISOBUTYLSULFONYL)PHENYL METHANESULFONATE] |  |  |  |  |  |  |  |  |  | 1 | 0.046 | 13 | >100 | 0.37 |  |  |
| CCC(C)c1ccccc1OC(=O)NC (stereo unspecified) [FENOBUCARB] |  |  |  |  |  |  |  |  |  | 12 | 0.18 | 11.8 | 1.44 | 1.4 |  |  |
| CC(C)CSc1cc(OS(C)(=O)=O)ncn1 [6-(ISOBUTYLTHIO)PYRIMIDIN-4-YL METHANESULFONATE] | 80 | 100 | > 100 | 0 | 0 | 0 | > 100 | < 10 | 0.391 |  |  |  |  |  | 0 | 100 |
| CC(C)CSc1nccc(OS(C)(=O)=O)n1 | 20 | 88.8 | > 100 | 0 | 20 | 0 | > 100 | < 10 | 0.18 |  |  |  |  |  | 30 | 20 |
| CC(C)CSc1cccc(OS(C)(=O)=O)n1 [6-(ISOBUTYLTHIO)PYRIDIN-2-YL METHANESULFONATE] | 100 | 1.8 | 1.8 | 0 | 100 | 100 | 2.9 | 72 | 0.4 | 2000 | 2000 | 1.06 | 1.11 | 1300 |  |  |
| CC(C)CSc1ccc(OS(C)(=O)=O)nc1 [5-(ISOBUTYLTHIO)PYRIDIN-2-YL METHANESULFONATE] | 100 |  |  | 0 | 0 | 10 |  | < 10 |  |  |  |  |  |  | 10 |  |
| CC(C)CSc1nnc(OS(C)(=O)=O)s1 [5-(ISOBUTYLTHIO)-1,3,4-THIADIAZOL-2-YL METHANESULFONATE] | 0 |  |  | 70 | 0 | 0 |  | < 10 |  |  |  |  |  |  | 0 | 20 |
| CC(C)CSc1cccc(OS(C)(=O)=O)c1 [3-(ISOBUTYLTHIO)PHENYL METHANESULFONATE] | 100 | 2.6 | 10.8 | 0 | 100 | 100 | 26.1 | < 10 | 0.541 |  |  |  |  |  |  |  |
